These compounds were tested against T1, hMAGL (Homo sapiens, UniProt Q99685) (assay: 2-AG assay: MAGL inhibition, hydrolysis of 2-arachidonoylglycerol to arachidonic acid followed by mass spectrometry).
T1 sequence (Q99685 1-303): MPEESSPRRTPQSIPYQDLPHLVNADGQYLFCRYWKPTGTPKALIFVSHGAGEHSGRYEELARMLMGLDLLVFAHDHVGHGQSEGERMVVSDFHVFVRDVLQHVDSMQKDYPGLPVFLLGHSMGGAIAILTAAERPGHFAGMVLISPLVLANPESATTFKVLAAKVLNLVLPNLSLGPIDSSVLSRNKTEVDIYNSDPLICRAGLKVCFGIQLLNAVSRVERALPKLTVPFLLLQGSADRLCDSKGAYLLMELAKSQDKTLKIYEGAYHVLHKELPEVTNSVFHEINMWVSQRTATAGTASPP
Format: biochemical
How it was run: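 Read-out is LC-MS/MS of arachidonic acid released from 2-arachidonoylglycerol (8 μM final), normalised to d8-arachidonic acid internal standard after acetonitrile quench. Enzyme […] and compound were pre-mixed 15 min, then reacted 30 min, both at RT, in Tris/EDTA buffer with 0.01% Tween-20 and 2.5% DMSO.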
O=C(N1CC2(CC(n3cnc(C4CC4)n3)C2)C1)N1CC2(CN(Cc3cc(C(F)(F)F)on3)C2)C1 [Example 190, [6-(3-cyclopropyl-1,2,4-triazol-1-yl)-2-azaspiro[3.3]heptan-2-yl]-[6-[[5-(trifluoromethyl)isoxazol-3-yl]methyl]-2,6-diazaspiro[3.3]heptan-2-yl]methanone] was tested, and the IC50 was 7.53 nM. For Cn1cc(CN2CC3(C2)CN(C(=O)N2CC4(CC(n5cnc(C(F)(F)F)n5)C4)C2)C3)c(C(F)(F)F)n1 [Example 191, [6-[[1-methyl-3-(trifluoromethyl)pyrazol-4-yl]methyl]-2,6-diazaspiro[3.3]heptan-2-yl]-[6-[3-(trifluoromethyl)-1,2,4-triazol-1-yl]-2-azaspiro[3.3]heptan-2-yl]methanone], the IC50 was 154 nM. For Cn1cc(CN2CC3(C2)CN(C(=O)N2CC4(CC(n5cnc(C6CC6)n5)C4)C2)C3)c(C(F)(F)F)n1 [Example 192], the IC50 was 16.8 nM. O=C(N1CC2(CC(n3cnc(C(F)(F)F)n3)C2)C1)N1CC2(CN(Cc3nnn(CC(F)(F)F)n3)C2)C1 [Example 193, [6-[[2-(2,2,2-trifluoroethyl)tetrazol-5-yl]methyl]-2,6-diazaspiro[3.3]heptan-2-yl]-[6-[3-(trifluoromethyl)-1,2,4-triazol-1-yl]-2-azaspiro[3.3]heptan-2-yl]methanone] was tested, and the IC50 was 730 nM. O=C(N1CC2(CC(n3cnc(C4CC4)n3)C2)C1)N1CC2(CN(Cc3nnn(CC(F)(F)F)n3)C2)C1 [Example 194, [6-(3-cyclopropyl-1,2,4-triazol-1-yl)-2-azaspiro[3.3]heptan-2-yl]-[6-[[2-(2,2,2-trifluoroethyl)tetrazol-5-yl]methyl]-2,6-diazaspiro[3.3]heptan-2-yl]methanone] gave an IC50 of 149 nM. Compound O=C(N1CC2(CC(n3cnc(C(F)(F)F)n3)C2)C1)N1CC2(CN(Cc3cnn(CC(F)(F)F)n3)C2)C1 [Example 195, [6-[[2-(2,2,2-trifluoroethyl)triazol-4-yl]methyl]-2,6-diazaspiro[3.3]heptan-2-yl]-[6-[3-(trifluoromethyl)-1,2,4-triazol-1-yl]-2-azaspiro[3.3]heptan-2-yl]methanone] has an IC50 of 439 nM. In the case of O=C(N1CC2(CC(n3cnc(C4CC4)n3)C2)C1)N1CC2(CN(Cc3cnn(CC(F)(F)F)n3)C2)C1 [Example 196, [6-(3-cyclopropyl-1,2,4-triazol-1-yl)-2-azaspiro[3.3]heptan-2-yl]-[6-[[2-(2,2,2-trifluoroethyl)triazol-4-yl]methyl]-2,6-diazaspiro[3.3]heptan-2-yl]methanone], the IC50 is reported as 79 nM. Compound O=C(N1CC2(CC(n3cnc(C(F)(F)F)n3)C2)C1)N1CC2(CN(Cc3nnnn3CC(F)(F)F)C2)C1 [Example 197, [6-[[1-(2,2,2-trifluoroethyl)tetrazol-5-yl]methyl]-2,6-diazaspiro[3.3]heptan-2-yl]-[6-[3-(trifluoromethyl)-1,2,4-triazol-1-yl]-2-azaspiro[3.3]heptan-2-yl]methanone] has an IC50 of 445 nM. With O=C(N1CC2(CC(n3cnc(C4CC4)n3)C2)C1)N1CC2(CN(Cc3nnnn3CC(F)(F)F)C2)C1 [Example 198, [6-(3-cyclopropyl-1,2,4-triazol-1-yl)-2-azaspiro[3.3]heptan-2-yl]-[6-[[1-(2,2,2-trifluoroethyl)tetrazol-5-yl]methyl]-2,6-diazaspiro[3.3]heptan-2-yl]methanone] the IC50 was 71.5 nM. Compound CC(C)(C)c1csc(CN2CC3(C2)CN(C(=O)N2CC4(CC(n5cnc(C6(O)CC6)n5)C4)C2)C3)n1 [Example 199, [6-[(4-tert-butylthiazol-2-yl)methyl]-2,6-diazaspiro[3.3]heptan-2-yl]-[6-[3-(1-hydroxycyclopropyl)-1,2,4-triazol-1-yl]-2-azaspiro[3.3]heptan-2-yl]methanone] has an IC50 of 6.7 nM. With CC(C)(C)c1csc(CN2CC3(C2)CN(C(=O)N2CC4(CC(n5cnc(C(F)(F)F)n5)C4)C2)C3)n1 [Example 200, [6-[(4-tert-butylthiazol-2-yl)methyl]-2,6-diazaspiro[3.3]heptan-2-yl]-[6-[3-(trifluoromethyl)-1,2,4-triazol-1-yl]-2-azaspiro[3.3]heptan-2-yl]methanone] the IC50 was 1.16 nM. For CC(C)(C)c1csc(CN2CC3(C2)CN(C(=O)N2CC4(CC(n5cnc(C6CC6)n5)C4)C2)C3)n1 [Example 201, [6-[(4-tert-butylthiazol-2-yl)methyl]-2,6-diazaspiro[3.3]heptan-2-yl]-[6-(3-cyclopropyl-1,2,4-triazol-1-yl)-2-azaspiro[3.3]heptan-2-yl]methanone], the IC50 was 0.64 nM. Compound O=C(N1CC2(CC(Cc3cnn(CC(F)(F)F)n3)C2)C1)N1CC2(CC(n3cnc(C4(O)CC4)n3)C2)C1 [Example 202, [6-[3-(1-hydroxycyclopropyl)-1,2,4-triazol-1-yl]-2-azaspiro[3.3]heptan-2-yl]-[6-[[2-(2,2,2-trifluoroethyl)triazol-4-yl]methyl]-2-azaspiro[3.3]heptan-2-yl]methanone] has an IC50 of 12.5 nM. In the case of O=C(N1CC2(CC(Cc3ncn(CC(F)(F)F)n3)C2)C1)N1CC2(CC(n3cnc(C4(O)CC4)n3)C2)C1 [Example 203, [6-[3-(1-hydroxycyclopropyl)-1,2,4-triazol-1-yl]-2-azaspiro[3.3]heptan-2-yl]-[6-[[1-(2,2,2-trifluoroethyl)-1,2,4-triazol-3-yl]methyl]-2-azaspiro[3.3]heptan-2-yl]methanone], the IC50 is reported as 135 nM. For O=C(N1CC2(CC(Cc3nc(CC(F)(F)F)n[nH]3)C2)C1)N1CC2(CC(n3cnc(C(F)(F)F)n3)C2)C1 [Example 204, [6-[[3-(2,2,2-trifluoroethyl)-1H-1,2,4-triazol-5-yl]methyl]-2-azaspiro[3.3]heptan-2-yl]-[6-[3-(trifluoromethyl)-1,2,4-triazol-1-yl]-2-azaspiro[3.3]heptan-2-yl]methanone], the IC50 was 25.8 nM. O=C(N1CC2(CC(Cc3nc(CC(F)(F)F)n[nH]3)C2)C1)N1CC2(CC(n3cnc(C4(O)CC4)n3)C2)C1 [Example 205, [6-[3-(1-hydroxycyclopropyl)-1,2,4-triazol-1-yl]-2-azaspiro[3.3]heptan-2-yl]-[6-[[3-(2,2,2-trifluoroethyl)-1H-1,2,4-triazol-5-yl]methyl]-2-azaspiro[3.3]heptan-2-yl]methanone] was tested, and the IC50 was 72.9 nM. With O=C(N1CC2(CC(n3cnc(C(F)(F)F)n3)C2)C1)N1CC2(CN(Cc3nc(CC(F)(F)F)no3)C2)C1 [Example 206] the IC50 was 149 nM. O=C(N1CC2(CC(n3cnc(C4CC4)n3)C2)C1)N1CC2(CN(Cc3nc(CC(F)(F)F)no3)C2)C1 [Example 207, [6-(3-cyclopropyl-1,2,4-triazol-1-yl)-2-azaspiro[3.3]heptan-2-yl]-[6-[[3-(2,2,2-trifluoroethyl)-1,2,4-oxadiazol-5-yl]methyl]-2,6-diazaspiro[3.3]heptan-2-yl]methanone] gave an IC50 of 25.6 nM. CC(C)(C)c1nnc(CN2CC3(C2)CN(C(=O)N2CC4(CC(n5cnc(C(F)(F)F)n5)C4)C2)C3)s1 [Example 208, [6-[(5-tert-butyl-1,3,4-thiadiazol-2-yl)methyl]-2,6-diazaspiro[3.3]heptan-2-yl]-[6-[3-(trifluoromethyl)-1,2,4-triazol-1-yl]-2-azaspiro[3.3]heptan-2-yl]methanone] gave an IC50 of 3.74 nM. Compound CC(C)(C)c1nnc(CN2CC3(C2)CN(C(=O)N2CC4(CC(n5cnc(C6CC6)n5)C4)C2)C3)s1 [Example 209, [6-[(5-tert-butyl-1,3,4-thiadiazol-2-yl)methyl]-2,6-diazaspiro[3.3]heptan-2-yl]-[6-(3-cyclopropyl-1,2,4-triazol-1-yl)-2-azaspiro[3.3]heptan-2-yl]methanone] has an IC50 of 5.28 nM. CC(C)(C)c1nnc(CN2CC3(C2)CN(C(=O)N2CC4(CC(n5cnc(C6(O)CC6)n5)C4)C2)C3)s1 [Example 210, [6-[(5-tert-butyl-1,3,4-thiadiazol-2-yl)methyl]-2,6-diazaspiro[3.3]heptan-2-yl]-[6-[3-(1-hydroxycyclopropyl)-1,2,4-triazol-1-yl]-2-azaspiro[3.3]heptan-2-yl]methanone] gave an IC50 of 28 nM. Work on O=C(N1CC2(CC(n3cnc(C(F)(F)F)n3)C2)C1)N1CC2(CN(Cc3cnc(C(F)(F)F)o3)C2)C1 [Example 211, [6-[[2-(trifluoromethyl)oxazol-5-yl]methyl]-2,6-diazaspiro[3.3]heptan-2-yl]-[6-[3-(trifluoromethyl)-1,2,4-triazol-1-yl]-2-azaspiro[3.3]heptan-2-yl]methanone] yielded an IC50 of 52.9 nM. Compound O=C(N1CC2(CC(n3cnc(C4CC4)n3)C2)C1)N1CC2(CN(Cc3cnc(C(F)(F)F)o3)C2)C1 [Example 212, [6-(3-cyclopropyl-1,2,4-triazol-1-yl)-2-azaspiro[3.3]heptan-2-yl]-[6-[[2-(trifluoromethyl)oxazol-5-yl]methyl]-2,6-diazaspiro[3.3]heptan-2-yl]methanone] has an IC50 of 13.1 nM. O=C(N1CC2(CC(n3cnc(C(F)(F)F)n3)C2)C1)N1CC2(CN(Cc3coc(C(F)(F)F)n3)C2)C1 [Example 213, [6-[[2-(trifluoromethyl)oxazol-4-yl]methyl]-2,6-diazaspiro[3.3]heptan-2-yl]-[6-[3-(trifluoromethyl)-1,2,4-triazol-1-yl]-2-azaspiro[3.3]heptan-2-yl]methanone] gave an IC50 of 168 nM. Work on O=C(N1CC2(CC(n3cnc(C4CC4)n3)C2)C1)N1CC2(CN(Cc3coc(C(F)(F)F)n3)C2)C1 [Example 214, [6-(3-cyclopropyl-1,2,4-triazol-1-yl)-2-azaspiro[3.3]heptan-2-yl]-[6-[[2-(trifluoromethyl)oxazol-4-yl]methyl]-2,6-diazaspiro[3.3]heptan-2-yl]methanone] yielded an IC50 of 28.5 nM.
